The subject of test [1] is Phosphorylated Ribosomal Protein S6 (RPS6) in THP-1 cells. The test is described as follows: THP-1 RPS6 ELISA Assay. It counts as cell-based, Human. The note with it: Homo sapiens, MCP-1 stimulated, phospho-RPS6 ELISA, read-out: THP p-RPS6 ELISA IC50. How it is done: Example A. THP-1 RPS6 ELISA Assay
To measure the Phosphorylated Ribosomal Protein S6 (RPS6) in cell lysates, THP-1 cells (Human Acute Monocytic Leukemia) are purchased from ATCC (Manassas, Va.) and maintained in RPMI with 10% FBS (Gibco/Life Technologies, Carlsbad, Calif.). For the assay, THP-1 cells are serum starved overnight in RPMI, then plated in RPMI (2×10^5 cells/well in 90 μL) into 96-well flat-bottom tissue culture treated plates (Corning, Corning, N.Y.), in the presence or absence of a concentration range of test compounds. Covered plates are incubated for 2 hours at 37° C., 5% CO2 then treated with or without 10 nM MCP-1 (MYBioSource, San Diego, Calif.) for 15 minutes at 37° C., 5% CO2. Plates are centrifuged at 1600 RPM and supernatants are removed. Cells are lysed in Lysis Buffer (Cell Signaling, Danvers, Mass.) with Protease Inhibitor (Calbiochem/EMD, Germany), PMSF (Sigma, St Louis Mo.), HALTS (Thermo Fisher, Rockford, Ill.) for 30 min on wet ice. Cell lysates are frozen at −80° C. before testing. The lysates are tested in the Human/Mouse/Rat Phospho-RPS6 ELISA (R&D Systems, Inc. Minn, Minn.). The plate is measured using a microplate reader (SpectraMax M5—Molecular Devices, LLC Sunnyvale, Calif.) set to 450 nm with a wavelength correction of 540. IC50 determination is performed by fitting the curve of inhibitor percent inhibition versus the log of the inhibitor concentration using the GraphPad Prism 5.0 software.
On the technique in general: In an ELISA, binding on a coated surface is turned into a signal by an enzyme label.

The target in test [2] is PI3Kγ (p110γ) Recombinant Human Protein (Homo sapiens (Human), UniProt P48736). The test is described as follows: PI3K-γ Scintillation Proximity Assay. The note with it: read-out: PI3K-gamma SPA IC50. It counts as biochemical. In short, it runs like this:
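Radiometric SPA: reaction at room temperature for 120 min using 2 μM ATP with [γ-33P]ATP tracer, 20 μM PIP2 substrate and 13 nM human PI3Kγ (MOPS pH 6.7, MgCl2, DTT, CHAPS; 2% DMSO). EDTA quench with WGA beads, scintillation count, and IC50 fit of percent-of-control activity.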
(In general: SPA uses beads or plates that emit light when radiolabelled molecules are held near them.)

Test [3] has as its target PI3Kδ (p110δ/p85α) Recombinant Human Protein (Homo sapiens (Human), UniProt O00329). The test is described as follows: PI3Kδ Scintillation Proximity Assay. It counts as biochemical. The note with it: read-out: PI3K-delta SPA IC50. In short, it runs like this: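 Assay conditions: 2 μM ATP (radiolabelled), 20 μM PIP2, 3.4 nM PI3Kδ, 20 mM MOPS pH 6.7 with 10 mM MgCl2, 5 mM DTT, 0.03% CHAPS, 2 h at room temperature. Signal from bead-captured 33P product; IC50 versus solvent control.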

Where a name gives a salt, the structure may show the parent alone. Bounds are passed on as bounds.

PI3Kδ (p110δ/p85α) Recombinant Human Protein, sequence (O00329 whole entry): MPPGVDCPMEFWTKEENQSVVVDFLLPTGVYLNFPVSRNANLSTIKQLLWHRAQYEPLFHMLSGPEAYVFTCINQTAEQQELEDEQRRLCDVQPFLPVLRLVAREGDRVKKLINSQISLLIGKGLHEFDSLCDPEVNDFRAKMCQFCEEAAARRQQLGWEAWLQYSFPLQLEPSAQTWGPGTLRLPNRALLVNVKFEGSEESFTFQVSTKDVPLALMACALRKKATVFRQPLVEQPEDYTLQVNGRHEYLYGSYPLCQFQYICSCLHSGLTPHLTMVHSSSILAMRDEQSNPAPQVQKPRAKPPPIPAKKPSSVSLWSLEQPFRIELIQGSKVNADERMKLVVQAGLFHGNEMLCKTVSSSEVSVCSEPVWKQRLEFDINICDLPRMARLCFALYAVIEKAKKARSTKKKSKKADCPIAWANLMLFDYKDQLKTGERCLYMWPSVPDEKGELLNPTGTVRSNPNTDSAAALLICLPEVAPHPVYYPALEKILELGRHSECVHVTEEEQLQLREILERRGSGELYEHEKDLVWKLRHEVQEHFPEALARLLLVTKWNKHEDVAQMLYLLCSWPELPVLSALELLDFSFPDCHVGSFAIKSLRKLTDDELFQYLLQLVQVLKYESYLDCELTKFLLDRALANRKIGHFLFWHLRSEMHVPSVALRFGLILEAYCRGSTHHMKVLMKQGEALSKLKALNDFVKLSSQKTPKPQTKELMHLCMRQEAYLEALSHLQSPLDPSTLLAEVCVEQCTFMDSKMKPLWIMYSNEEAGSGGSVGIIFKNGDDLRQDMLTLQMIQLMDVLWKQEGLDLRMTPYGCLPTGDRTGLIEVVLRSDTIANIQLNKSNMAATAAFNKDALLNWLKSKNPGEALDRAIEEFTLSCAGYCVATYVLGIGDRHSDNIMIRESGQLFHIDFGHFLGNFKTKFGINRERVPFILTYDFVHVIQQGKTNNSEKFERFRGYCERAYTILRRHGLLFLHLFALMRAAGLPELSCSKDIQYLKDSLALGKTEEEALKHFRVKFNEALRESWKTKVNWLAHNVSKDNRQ
PI3Kδ (p110δ/p85α) Recombinant Human Protein, sequence (P27986 whole entry partner): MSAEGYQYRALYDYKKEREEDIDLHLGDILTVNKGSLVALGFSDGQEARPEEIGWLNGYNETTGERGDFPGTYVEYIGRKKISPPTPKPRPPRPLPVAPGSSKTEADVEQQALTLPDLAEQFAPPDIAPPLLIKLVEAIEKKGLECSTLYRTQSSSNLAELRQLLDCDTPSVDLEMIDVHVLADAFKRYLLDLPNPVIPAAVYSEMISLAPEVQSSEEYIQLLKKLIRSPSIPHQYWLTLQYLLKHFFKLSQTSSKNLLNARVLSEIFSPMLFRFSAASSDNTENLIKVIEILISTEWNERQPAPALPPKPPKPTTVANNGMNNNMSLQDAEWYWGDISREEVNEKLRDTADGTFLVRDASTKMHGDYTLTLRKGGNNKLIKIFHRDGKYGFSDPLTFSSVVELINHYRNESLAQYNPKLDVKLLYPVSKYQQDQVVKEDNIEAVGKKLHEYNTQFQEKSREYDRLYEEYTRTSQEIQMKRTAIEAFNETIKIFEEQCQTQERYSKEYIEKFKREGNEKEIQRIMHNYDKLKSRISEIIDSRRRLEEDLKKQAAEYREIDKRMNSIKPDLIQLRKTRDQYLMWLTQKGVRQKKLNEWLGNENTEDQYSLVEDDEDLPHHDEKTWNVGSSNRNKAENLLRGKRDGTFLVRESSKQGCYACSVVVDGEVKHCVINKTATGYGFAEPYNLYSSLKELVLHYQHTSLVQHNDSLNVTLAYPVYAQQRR
PI3Kγ (p110γ) Recombinant Human Protein, sequence (P48736 whole entry): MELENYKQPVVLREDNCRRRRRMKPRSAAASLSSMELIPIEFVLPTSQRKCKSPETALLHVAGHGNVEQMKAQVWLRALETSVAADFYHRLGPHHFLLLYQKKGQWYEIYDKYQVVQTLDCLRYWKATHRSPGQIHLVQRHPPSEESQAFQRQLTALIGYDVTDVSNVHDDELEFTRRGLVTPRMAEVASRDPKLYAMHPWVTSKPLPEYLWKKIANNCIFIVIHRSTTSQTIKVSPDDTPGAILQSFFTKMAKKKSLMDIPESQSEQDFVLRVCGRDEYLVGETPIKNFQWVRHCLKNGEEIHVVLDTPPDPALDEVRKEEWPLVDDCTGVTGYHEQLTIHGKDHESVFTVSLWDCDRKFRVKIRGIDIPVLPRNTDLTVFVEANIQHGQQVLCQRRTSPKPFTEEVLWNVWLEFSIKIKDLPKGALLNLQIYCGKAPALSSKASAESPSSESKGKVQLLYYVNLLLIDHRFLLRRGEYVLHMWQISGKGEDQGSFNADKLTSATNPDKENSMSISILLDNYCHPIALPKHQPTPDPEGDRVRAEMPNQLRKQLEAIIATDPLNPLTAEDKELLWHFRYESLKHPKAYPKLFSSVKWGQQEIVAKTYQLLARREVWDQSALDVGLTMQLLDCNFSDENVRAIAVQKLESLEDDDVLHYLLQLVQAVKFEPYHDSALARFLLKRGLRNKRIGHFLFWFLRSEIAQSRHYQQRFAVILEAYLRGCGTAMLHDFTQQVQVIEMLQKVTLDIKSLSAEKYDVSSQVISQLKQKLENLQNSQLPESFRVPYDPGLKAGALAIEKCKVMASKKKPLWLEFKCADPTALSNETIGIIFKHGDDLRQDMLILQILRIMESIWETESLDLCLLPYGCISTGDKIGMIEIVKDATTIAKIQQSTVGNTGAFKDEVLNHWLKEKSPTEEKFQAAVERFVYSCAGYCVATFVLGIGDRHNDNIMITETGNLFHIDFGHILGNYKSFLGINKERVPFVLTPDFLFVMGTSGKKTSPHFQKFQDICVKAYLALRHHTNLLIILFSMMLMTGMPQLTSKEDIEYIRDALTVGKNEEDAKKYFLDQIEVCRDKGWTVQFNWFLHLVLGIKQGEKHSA

With `COc1cncc(-c2ccnc(-c3cnc(NCC4CCC4)[nH]3)c2)c1` [Example 65, N-(Cyclobutylmethyl)-5-(5-methoxy-3,4′-bipyridin-2′-yl)-1H-imidazol-2-amine trifluoroacetate salt], the IC50 was over 5000 nM in test [1], at most 500 nM in test [2] and over 500 nM in test [3].
The like results for `CCCCNc1nnc(-c2cc(-c3cncc(OC)c3)ccn2)[nH]1` [Example 66, N-Butyl-5-(5-methoxy-3,4′-bipyridin-2′-yl)-4H-1,2,4-triazol-3-amine Trifluoroacetate Salt] were, in that order, over 5000 nM, at most 500 nM and over 500 nM.
The like results for `COc1cncc(-c2ccnc(-c3nnc(NC(C)C)[nH]3)c2)c1` [Example 67, N-Isopropyl-5-(5-methoxy-3,4′-bipyridin-2′-yl)-4H-1,2,4-triazol-3-amine trifluoroacetate salt] were, in that order, over 5000 nM, at most 500 nM and at most 500 nM.
Consider `CNc1nnc(-c2cc(-c3cncc(OC)c3)ccn2)[nH]1` [Example 68, 5-(5-Methoxy-3,4′-bipyridin-2′-yl)-N-methyl-4H-1,2,4-triazol-3-amine trifluoroacetate salt], for which the IC50 was over 5000 nM in test [1], at most 500 nM in test [2] and over 500 nM in test [3].
For `COc1cncc(-c2ccnc(-c3nnc(Nc4ccccc4)[nH]3)c2)c1` [Example 70, 5-(5-Methoxy-3,4′-bipyridin-2′-yl)-N-phenyl-4H-1,2,4-triazol-3-amine trifluoroacetate salt], in that order: over 5000 nM, at most 500 nM and at most 500 nM.
For `COc1cncc(-c2ccnc(-c3nnc(-c4ccccc4)[nH]3)c2)c1` [Example 71, 5-Methoxy-2′-(5-phenyl-4H-1,2,4-triazol-3-yl)-3,4′-bipyridine], in that order: over 5000 nM, at most 500 nM and at most 500 nM.
For `COc1cncc(-c2ccnc(-c3cnc(-c4ccccc4)[nH]3)c2)c1` [Example 74, 5-Methoxy-2′-(2-phenyl-1H-imidazol-5-yl)-3,4′-bipyridine], in that order: over 5000 nM, at most 50 nM and at most 50 nM.
Turning to `COc1cncc(-c2ccnc(-c3nc(C)c(C)[nH]3)c2)c1` [Example 76, 2′-(4,5-Dimethyl-1H-imidazol-2-yl)-5-methoxy-3,4′-bipyridine], the results for the IC50 in test [1], in test [2] and in test [3] were 300 to 1000 nM, at most 50 nM and at most 100 nM, respectively.
The like results for `COc1cncc(-c2ccnc(-c3ncc(C)[nH]3)c2)c1` [Example 77, 5-Methoxy-2′-(5-methyl-1H-imidazol-2-yl)-3,4′-bipyridine] were, in that order, 300 to 1000 nM, at most 50 nM and at most 500 nM.
The like results for `COc1cncc(-c2ccnc(-c3ncc(C(F)(F)F)[nH]3)c2)c1` [Example 79, 5-Methoxy-2′-(5-(trifluoromethyl)-1H-imidazol-2-yl)-3,4′-bipyridine trifluoroacetate salt] were, in that order, over 5000 nM, at most 50 nM and at most 500 nM.
For `COc1cncc(-c2ccnc(-c3nc(C)c(-c4ccccc4)[nH]3)c2)c1` [Example 82, 5-Methoxy-2′-(4-methyl-5-phenyl-1H-imidazol-2-yl)-3,4′-bipyridine trifluoroacetate salt], in that order: over 5000 nM, at most 50 nM and at most 50 nM.
For the compound `COc1cncc(-c2ccnc(-c3ncc(-c4ccc(S(=O)(=O)N(C)C)cc4)[nH]3)c2)c1` [Example 83, 4-(2-(5-Methoxy-3,4′-bipyridin-2′-yl)-1H-imidazol-5-yl)-N,N-dimethylbenzenesulfonamide trifluoroacetate salt], the IC50 in test [1] was over 5000 nM; in test [2] it was at most 50 nM; in test [3] it was at most 50 nM.
For `COc1cncc(-c2ccnc(-c3ncc(C(C)C)[nH]3)c2)c1` [Example 84, 2′-(5-Isopropyl-1H-imidazol-2-yl)-5-methoxy-3,4′-bipyridine trifluoroacetate salt], the IC50 in test [1] was 1000 to 5000 nM; in test [2], at most 100 nM; in test [3], at most 500 nM.
On to `CCc1cnc(-c2cc(-c3cncc(OC)c3)ccn2)[nH]1` [Example 85, 2′-(5-Ethyl-1H-imidazol-2-yl)-5-methoxy-3,4′-bipyridine trifluoroacetate salt], for which the IC50 is over 5000 nM in test [1], at most 500 nM in test [2] and over 500 nM in test [3].
For `COc1cncc(-c2ccnc(-c3ncc(C4CC4)[nH]3)c2)c1` [Example 86, 2′-(5-Cyclopropyl-1H-imidazol-2-yl)-5-methoxy-3,4′-bipyridine], in that order: 300 to 1000 nM, at most 50 nM and at most 500 nM.
`COc1cncc(-c2ccnc(-c3ncc(-c4ccccn4)[nH]3)c2)c1` [Example 87, 5-Methoxy-2′-(5-(pyridin-2-yl)-1H-imidazol-2-yl)-3,4′-bipyridine trifluoroacetate salt]: the values for the IC50 in test [1], in test [2] and in test [3] were over 5000 nM, at most 100 nM and at most 50 nM, respectively.
For `COc1cncc(-c2ccnc(-c3ncc(C(C)(C)C)[nH]3)c2)c1` [Example 88, 2′-(5-tert-Butyl-1H-imidazol-2-yl)-5-methoxy-3,4′-bipyridine trifluoroacetate salt], in that order: over 5000 nM, at most 500 nM and at most 50 nM.
For `COc1cncc(-c2ccnc(-c3nc4ccccc4[nH]3)n2)c1` [Example 94, 2-[4-(5-Methoxypyridin-3-yl)pyrimidin-2-yl]-1H-benzimidazole Trifluoroacetate Salt], in that order: 1000 to 5000 nM, at most 500 nM and over 500 nM.
For `Cc1cnc(-c2cc(-c3cncc(N4CCOCC4)c3)ccn2)[nH]1` [Example 97, 2′-(5-Methyl-1H-imidazol-2-yl)-5-morpholin-4-yl-3,4′-bipyridine], in that order: 300 to 1000 nM, at most 50 nM and at most 500 nM.
With `Cc1nc(-c2cc(-c3cncc(N4CCOCC4)c3)ccn2)[nH]c1C` [Example 98, 4-(2′-(4,5-Dimethyl-1H-imidazol-2-yl)-3,4′-bipyridin-5-yl)morpholine trifluoroacetate salt], the IC50 in test [1] was at most 300 nM; in test [2], at most 100 nM; in test [3] it was at most 100 nM.
For the compound `FC(F)(F)c1cnc(-c2cc(-c3cncc(N4CCOCC4)c3)ccn2)[nH]1` [Example 99, 4-(2′-(5-(Trifluoromethyl)-1H-imidazol-2-yl)-3,4′-bipyridin-5-yl)morpholine trifluoroacetate salt], the IC50 in test [1] is over 5000 nM; in test [2], at most 50 nM; in test [3] it was at most 500 nM.
Take `c1cc(-c2cncc(N3CCOCC3)c2)cc(-c2ncc(C3CC3)[nH]2)n1` [Example 102, 4-(2′-(5-Cyclopropyl-1H-imidazol-2-yl)-3,4′-bipyridin-5-yl)morpholine trifluoroacetate salt]: the values for the IC50 in test [1], in test [2] and in test [3] were 300 to 1000 nM, at most 100 nM and at most 50 nM, respectively.
As for `c1cc(-c2cncc(N3CCOCC3)c2)cc(-c2ncc(C3CCC3)[nH]2)n1` [Example 103, 4-(2′-(5-Cyclobutyl-1H-imidazol-2-yl)-3,4′-bipyridin-5-yl)morpholine trifluoroacetate salt], the values for the IC50 in test [1], in test [2] and in test [3] were 1000 to 5000 nM, at most 100 nM and at most 50 nM, respectively.
For `Cc1nc(-c2cc(-c3cncc(N4CCOCC4)c3)ccn2)[nH]c1C1CC1` [Example 104, 4-(2′-(5-Cyclopropyl-4-methyl-1H-imidazol-2-yl)-3,4′-bipyridin-5-yl)morpholine trifluoroacetate salt], in that order: at most 300 nM, at most 50 nM and at most 50 nM.
The like results for `CCc1[nH]c(-c2cc(-c3cncc(N4CCOCC4)c3)ccn2)nc1C` [Example 105, 4-(2′-(5-Ethyl-4-methyl-1H-imidazol-2-yl)-3,4′-bipyridin-5-yl)morpholine] were, in that order, at most 300 nM, at most 100 nM and at most 100 nM.

Source of the values: patent US11352340B2, “Pyridine and pyridimine compounds as PI3K-gamma inhibitors” (Incyte Corporation, priority 2016, dated 2022).
